Bridge positions count the residues as written; N and C are the ends. Square brackets hold non-standard residues; d marks the D form. Peptide text beside a SMILES is read from it. R8 = C=CCCCCCC[C@@](C)(N)C(=O)O; S5 = C=CCCC[C@](C)(N)C(=O)O; Nle = CCCC[C@H](N)C(=O)O

Test [1] concerns the target T1, flag-tagged HIF1α (AA 786-826) / His6-tagged p300 (AA 323-423) complex (Homo sapiens, UniProt Q09472).
T1 construct: His6-tagged p300 (AA 323-423); made in house; host or cells: E. coli (pETDuet vector)
The experiment in a line: HIF1α p300 displacement assay (TR FRET, +CHAPS). Format: binding. As to conditions: read-out: IC50 (nM) (HIF1α_p300 Displacement + CHAPS). The procedure, abridged:
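The co-expressed flag-HIF1α (786-826)/His6-p300 (323-423) complex, purified from E. coli with 0.1 mM ZnSO4, was used at 300 nM final with competitor peptides for 1 h at room temperature. Buffer was 150 mM NaCl, 20 mM HEPES pH 7.4, 7.5 mM CHAPS and 1 mM DTT. Anti-Flag-K (0.5 μM) and anti-His-D2 (4 nM) were then added for 2 h, and IC50s were fitted from the TR-FRET ratio.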

Test [2] relates to HRE-bla ME-180 cells. In words: Cell proliferation assay (viability, MTT, 1% FBS). Format: cell-based, human. The procedure, abridged:
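ME-180 cells (2×10^4/well) in Opti-MEM with 1% FBS were pretreated 16 h under normoxia (21% O2), vehicle 0.5% DMSO final. Incubation then continued under normoxia or hypoxia (1% O2); viable cells quantified by MTT-type CellTiter 96 assay.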

Test [3] deals with HRE-bla ME-180 cells. In words: Reporter gene assay (HRE-bla ME-180 HIF reporter, GeneBLAzer). Format: cell-based, human. The following applies: for EC50: 24 hour normoxia. The procedure, abridged:
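A FRET β-lactamase readout of HIF transcription was used. After compound treatment in 0.3% DMSO/media under normoxic conditions, 20 μl of 6× LiveBLAzer-FRET B/G (CCF4-AM) substrate was added. Plates sat 3 hr at room temperature in the dark and were read at 409 Ex/460Em and 409Ex/530Em on a Synergy 2. Inhibition was compared against DMSO vehicle controls, with chetomin as positive control.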

Regarding `CCCC[C@H](NC(=O)[C@H](CC(C)C)NC(=O)[C@@H](NC(=O)[C@H](CCC(=O)O)NC(=O)[C@H](CCC(=O)O)NC(=O)[C@H](CC(=O)O)NC(=O)[C@@H](NC(=O)[C@H](CC(N)=O)NC(=O)[C@@H](NC(=O)[C@H](CCC(N)=O)NC(=O)[C@H](CC(=O)O)NC(=O)[C@H](CC(C)C)NC(=O)[C@H](C)NC(=O)[C@H](CCCNC(=N)N)NC(=O)[C@]1(C)CCCC=CCCC[C@](C)(NC(=O)[C@H](CCC(N)=O)NC(=O)[C@H](CC(C)C)NC(=O)[C@H](CC(C)C)NC(C)=O)C(=O)N[C@@H](CCC(=O)O)C(=O)N[C@@H](CCC(=O)O)C(=O)N[C@@H](CC(C)C)C(=O)N1)C(C)C)[C@@H](C)CC)C(C)C)C(=O)N[C@@]1(C)CCCC=CCCC[C@@](C)(C(=O)N[C@@H](CCCC)C(=O)NCC(N)=O)NC(=O)[C@H]([C@@H](C)CC)NC(=O)[C@H](C(C)C)NC(=O)[C@H](CC(C)C)NC1=O` [SP-306] (Ac-LLQ[S5]EEL[S5]RALDQVNIDEEVL[Nle][S5]LVI[S5][Nle]G-NH2; staple 4-8, 23-27), the IC50 in test [1] was at most 200 nM. For the same compound, the “Viability 1% FBS AVG (MTT V3-24 hr Normoxia) (μM)” value (“Viability 1% FBS AVG” for short) in test [2] is recorded as “++++ (≥30: ++++)”. Moreover, in test [3], the “18 h Avg % max inhibition at top conc (HIF Rptr-24 hrs normoxia) (μM)” value (“18 h Avg % max inhibition at top conc” for short) was “+++ (≤25 but <50: +++)” and the concentration giving a half-maximal response (EC50) is above 30 µM.
Taken in the same sequence, the figures for `CCCC[C@H](NC(=O)[C@H](CCC(=O)O)NC(=O)[C@]1(C)CCCC=CCCCCCC[C@@](C)(NC(=O)[C@H](CCC(=O)O)NC(=O)[C@H](CC(=O)O)NC(=O)[C@@H](NC(=O)[C@H](CC(N)=O)NC(=O)[C@@H](NC(=O)[C@H](CCC(N)=O)NC(=O)[C@H](CC(=O)O)NC(=O)[C@H](CC(C)C)NC(=O)[C@]2(C)CCCC=CCCC[C@](C)(NC(=O)[C@H](CCC(=O)O)NC(=O)CNC(=O)[C@H](CCC(N)=O)NC(=O)[C@H](CC(C)C)NC(=O)[C@H](CC(C)C)NC(C)=O)C(=O)N[C@@H](CC(C)C)C(=O)N[C@@H](CC(C)C)C(=O)N[C@@H](CCCNC(=N)N)C(=O)N2)C(C)C)[C@@H](C)CC)C(=O)N[C@@H](C(C)C)C(=O)N[C@@H](CC(C)C)C(=O)N[C@@H](CCCC)C(=O)N[C@@H](CO)C(=O)N[C@@H](CC(C)C)C(=O)N[C@@H](C(C)C)C(=O)N1)C(=O)NCC(N)=O` [SP-311] (Ac-LLQGE[S5]LLR[S5]LDQVNIDE[R8]VL[Nle]SLV[S5]E[Nle]G-NH2; staple 6-10, 19-26) were above 700 nM, “++++ (≥30: ++++)”, “++ (≤10 but <25: ++)” and above 30 µM.
For `CCCC[C@H](NC(=O)[C@H](CCC(=O)O)NC(=O)[C@]1(C)CCCC=CCCCCCC[C@@](C)(NC(=O)[C@H](CCC(=O)O)NC(=O)[C@H](CC(=O)O)NC(=O)[C@@H](NC(=O)[C@H](CC(N)=O)NC(=O)[C@@H](NC(=O)[C@H](CCC(N)=O)NC(=O)[C@H](CC(=O)O)NC(=O)[C@H](CC(C)C)NC(=O)[C@H](C)NC(=O)[C@]2(C)CCCC=CCCC[C@](C)(NC(=O)CNC(=O)[C@H](CCC(N)=O)NC(=O)[C@H](CC(C)C)NC(=O)[C@H](CC(C)C)NC(C)=O)C(=O)N[C@@H](CCC(=O)O)C(=O)N[C@@H](CC(C)C)C(=O)N[C@@H](CC(C)C)C(=O)N2)C(C)C)[C@@H](C)CC)C(=O)N[C@@H](C(C)C)C(=O)N[C@@H](CC(C)C)C(=O)N[C@@H](CCCC)C(=O)N[C@@H](CO)C(=O)N[C@@H](CC(C)C)C(=O)N[C@@H](C(C)C)C(=O)N1)C(=O)NCC(N)=O` [SP-343] (Ac-LLQG[S5]ELL[S5]ALDQVNIDE[R8]VL[Nle]SLV[S5]E[Nle]G-NH2; staple 5-9, 19-26), in that order: 200 to 400 nM, “++++ (≥30: ++++)”, “+ (<10: +)” and above 30 µM.
On to `CCCC[C@H](NC(=O)[C@H](Cc1ccccc1)NC(=O)[C@@H](NC(=O)[C@H](C)NC(=O)[C@H](CCC(N)=O)NC(=O)[C@H](CC(=O)O)NC(=O)[C@@H](NC(=O)[C@H](Cc1ccccc1)NC(C)=O)[C@@H](C)CC)C(C)C)C(=O)N[C@@]1(C)CCCC=CCCC[C@@](C)(C(=O)N[C@@H](Cc2c[nH]cn2)C(=O)N[C@@H](C)C(=O)N[C@@H](CC(C)C)C(=O)N[C@@H](CC(C)C)C(N)=O)NC(=O)[C@H]([C@@H](C)CC)NC(=O)[C@H](C(C)C)NC(=O)[C@H](CC(N)=O)NC1=O` [SP-259] (Ac-FIDQAVF[Nle][S5]NVI[S5]HALL-NH2; staple 9-13), for which, in test [1], the IC50 was above 700 nM. In addition, the “Viability 1% FBS AVG” value in test [2] is on record as “+ (<5: +)”. For the same compound, in test [3], the “18 h Avg % max inhibition at top conc” value was “++++ (≥50: ++++)” and the EC50 was at most 5 µM.
For `CCCC[C@H](NC(=O)[C@H](CC(C)C)NC(=O)[C@@H](NC(=O)[C@H](CCC(=O)O)NC(=O)[C@H](CCC(=O)O)NC(=O)[C@H](CC(=O)O)NC(=O)[C@@H](NC(=O)[C@H](CC(N)=O)NC(=O)[C@@H](NC(=O)[C@H](CCC(N)=O)NC(=O)[C@H](CC(=O)O)NC(=O)[C@H](CC(C)C)NC(=O)[C@H](C)NC(=O)[C@]1(C)CCCC=CCCC[C@](C)(NC(=O)CNC(=O)[C@H](CCC(N)=O)NC(=O)[C@H](CC(C)C)NC(=O)[C@H](CC(C)C)NC(C)=O)C(=O)N[C@@H](CCC(=O)O)C(=O)N[C@@H](CC(C)C)C(=O)N[C@@H](CC(C)C)C(=O)N1)C(C)C)[C@@H](C)CC)C(C)C)C(=O)N[C@@]1(C)CCCC=CCCC[C@@](C)(C(=O)N[C@@H](CCCC)C(=O)NCC(N)=O)NC(=O)[C@H]([C@@H](C)CC)NC(=O)[C@H](C(C)C)NC(=O)[C@H](CC(C)C)NC1=O` [SP-338] (Ac-LLQG[S5]ELL[S5]ALDQVNIDEEVL[Nle][S5]LVI[S5][Nle]G-NH2; staple 5-9, 23-27), the IC50 in test [1] was above 700 nM. Further, the “Viability 1% FBS AVG” value in test [2] was “++++ (≥30: ++++)”. Also, in test [3], the “18 h Avg % max inhibition at top conc” value is listed as “+++ (≤25 but <50: +++)” and the EC50 was above 30 µM.
For `CCCC[C@H](NC(=O)[C@H](Cc1ccccc1)NC(=O)[C@@H](NC(=O)[C@H](C)NC(=O)[C@H](CCC(N)=O)NC(=O)[C@H](CC(=O)O)NC(=O)[C@@H](NC(=O)[C@H](Cc1ccccc1)NC(C)=O)[C@@H](C)CC)C(C)C)C(=O)N[C@@]1(C)CCCC=CCCC[C@@](C)(C(=O)N[C@@H](CCCC)C(=O)N[C@@H](C)C(=O)N[C@@H](CC(C)C)C(=O)N[C@@H](CC(C)C)C(N)=O)NC(=O)[C@H]([C@@H](C)CC)NC(=O)[C@H](C(C)C)NC(=O)[C@H](CO)NC1=O` [SP-252] (Ac-FIDQAVF[Nle][S5]SVI[S5][Nle]ALL-NH2; staple 9-13), in that order: above 700 nM, “++ (≤5 but <15: ++)”, “++++ (≥50: ++++)” and at most 5 µM.
For `CC[C@H](C)[C@H](NC(=O)[C@H](CCCNC(=N)N)NC(=O)[C@H](CC(=O)O)NC(=O)[C@H](CC(C)C)NC(=O)[C@H](C)NC(=O)[C@H](CCSC)NC(=O)[C@]1(C)CCCC=CCCC[C@](C)(NC(=O)[C@H](CCSC)NC(=O)[C@H](Cc2ccccc2)NC(=O)[C@@H](NC(=O)[C@H](C)NC(=O)[C@H](CCC(N)=O)NC(=O)[C@H](CC(=O)O)NC(=O)[C@@H](NC(=O)[C@H](Cc2ccccc2)NC(C)=O)[C@@H](C)CC)C(C)C)C(=O)N[C@@H](CC(C)C)C(=O)N[C@@H](C(C)C)C(=O)N[C@@H]([C@@H](C)CC)C(=O)N1)C(N)=O` [SP-268] (Ac-FIDQAVFM[S5]LVI[S5]MALDRI-NH2; staple 9-13), in that order: above 700 nM, “++++ (≥30: ++++)”, “+++ (≤25 but <50: +++)” and above 30 µM.
As for `CC[C@H](C)[C@H](NC(=O)[C@H](Cc1ccccc1)NC(C)=O)C(=O)N[C@@H](CC(=O)O)C(=O)N[C@@H](CCC(=O)O)C(=O)N[C@@]1(C)CCCC=CCCC[C@@](C)(C(=O)N[C@@H](CC(C)C)C(=O)N[C@H](C(=O)N[C@H](C(=O)N[C@@H](CCC(=O)O)C(=O)N[C@@H](CCSC)C(=O)N[C@@H](C)C(=O)N[C@@H](CC(C)C)C(=O)N[C@@H](CC(=O)O)C(=O)N[C@@H](CCCNC(=N)N)C(=O)N[C@H](C(=O)N[C@@H](CCCCN)C(=O)N[C@@H](CCC(=O)O)C(=O)N[C@@H](CC(C)C)C(=O)N2CCC[C@H]2C(=O)N[C@@H](CCC(=O)O)C(=O)N[C@@H](CC(C)C)C(=O)N[C@@H](Cc2c[nH]c3ccccc23)C(=O)N[C@@H](CC(C)C)C(N)=O)[C@@H](C)CC)[C@@H](C)CC)C(C)C)NC(=O)[C@H](C)NC(=O)[C@H](CC(C)C)NC(=O)[C@H](C(C)C)NC1=O` [SP-112] (Ac-FIDE[S5]VLA[S5]LVIEMALDRIKELPELWL-NH2; staple 5-9), the IC50 in test [1] was at most 200 nM. The “Viability 1% FBS AVG” value in test [2] is reported as “++++ (≥30: ++++)”. In test [3], the “18 h Avg % max inhibition at top conc” value was “+++ (≤25 but <50: +++)” and the EC50 lay within 5 to 15 µM.

(Values after patent US20190225650A1, “PEPTIDOMIMETIC MACROCYCLES AND USE THEREOF IN REGULATING HIF1ALPHA” (AILERON THERAPEUTICS, INC., priority 2013, published 2019).)
